Measurements published in article PMC12906832, “Transgenic Tobacco Plants Expressing Synthetic Peptides: A Functional and Structural Analysis for Pathogen Resistance” (Plant Biotechnology Journal, 2025).
No end group written: not given here.

Experiments:
[1] = Plant extract stability assay (RP-HPLC); format: in vitro ADME, Nicotiana tabacum; conditions: tobacco leaf extract (20% v/v) containing plant proteases; 1 mg peptide in 20% v/v tobacco leaf extract in 10 mM phosphate buffer pH 7.4, 37°C, stopped with 1% TFA, RP-HPLC C18 peak integration, mean ± SEM n = 3
Experimental: The stability of VR18 and KG18 in the presence of plant proteases present in plant leaf extract was monitored using a modified version of a previously reported protocol (Li et al. [2002]). Briefly, 1 g of 1‐month‐old tobacco leaf ( Nicotiana tabacum ) was crushed in liquid nitrogen, followed by extraction in 10 mM phosphate buffer (pH 7.4). The suspension was pelleted at 13500× g for 5 min, and the supernatant was collected. 1 mg of the respective peptide was added to a stock of 20% v/v plant extract in 10 mM phosphate buffer (pH 7.4) and incubated at 37°C. 100 μL of aliquots were withdrawn at appropriate time intervals, and the reaction was stopped using 1% trifluoroacetic acid (TFA). Plant extract (20% v/v) was used as a negative control. The aliquots were subjected to a LC‐20AT reverse phase HPLC system (SHIMADZU, Japan) equipped with a Phenomenix C18 column (250 × 10 mm, pore size 100 Å, particle size 5 μm) at room temperature, using acetonitrile and water with 0.1% TFA as the solvents. A flow rate of 1 mL/min was maintained. The percentage of peptide remaining in the plant extract at different time intervals was analysed by peak integration using […] software, and the area obtained was normalised with respect to the free peptide without the plant extract.

HEK293 cells = test: MTT cell viability assay; format: cell-based, human; conditions: 24 h, concentrations up to 4× MIC99%, triplicate
Experimental: For details, please see section 1.2 of Supporting Information.
(§1) 1. Experimental Procedures
(§2) 1.1. Membrane permeabilization assay
(§3) Pseudomonas syringae pv. tabaci cells were grown till mid-logarithmic phase. The cells were […]
(§4) obtain a suspension containing 10^5 CFU/ml. 10µM of Propidium Iodide (Sigma Aldrich Co., St.
(§5) Louis, USA) was added to the cell suspension and incubated at room temperature, under shaking […]
(§6) fluorescence intensity was measured at 25 °C for 30 min at an excitation and emission wavelength of 535 nm and 617 nm respectively. After obtaining the fluorescence intensity of the stabilized cells, peptides were added at increasing concentrations, and the increase in fluorescence intensity was recorded. […]
(§7) HEK293 cell viability was monitored by MTT assay. […] Cell viability was then assessed by incubating the control and peptide treated cells using 100 µl of MTT (2mg/ml) for 3 h. The formazan crystals formed were dissolved in dimethyl sulfoxide (DMSO) and absorbance at 570 nm was recorded using SpectraMax M3 (Softmax Pro 6.3) multiplate reader. […] Cell viability was calculated using the equation: […]
1.3. […] A readseq program, (http://iubio.bio.indiana.edu/soft/molbio/readseq/) is used by the server that reads the protein sequences in standard formats like EMBL, FASTA, GCG or plain text format (Saha & Raghava, 2006). […]

[2] = tested on: Xanthomonas campestris pv. vesicatoria, X. campestris pv. campestris, X. oryzae pv. oryzae, Pseudomonas syringae pv. tabaci; conditions: 72 h
[3] = tested on: Pseudomonas syringae pv. tabaci cells; test: Membrane permeabilization assay (propidium iodide uptake); format: cell-based; conditions: within 30 min of treatment, 10 µM PI, 10 mM phosphate buffer pH 7.4, normalised to Polymyxin B, n = 3
Experimental: Pseudomonas syringae pv. tabaci cells were prepared and incubated with Propidium Iodide. The increase in fluorescence intensity was checked upon the addition of peptides. For details, please see section 1.1 of Supporting Information.
as §1, §2, §3, §4, §5
as §6, with “recorded. Normalization was done using measurement of cells treated with Polymyxin B that served as control.” for “recorded.”
as §7

Substance | half-life [1] | cytotoxic effect on HEK 293 cells (MTT) (HEK293 cells) | IC50 [2] | minimal inhibitory concentration (MIC99%) [2] | propidium iodide (PI) uptake [3]
KNKSRVARGWGRKCPLFG [KG18] | > 1 h | no toxicity | 2.75 to 5.5 µM | 3 to 10 µM | –
VARGWGRKCPLFGKNKSR [VR18] | > 1 h | no toxicity | 1.5 to 4.25 µM | 3 to 10 µM | –
Polymyxin B | – | – | – | – | maximum PI uptake
